From US8975259B2, “Compositions and methods for inhibiting G protein signaling” (University of Rochester, priority 2007, dated 2015)

Tests used:
Fαi1GDPβ1γ2 heterotrimer = molecular target: T1, Fαi1GDPβ1γ2 heterotrimer (UniProt P54311+P63212); assay: Dissociation of Fαi1 from preformed Fαi1β1γ2 heterotrimer (flow cytometry); format: binding; settings: result in words
T1 construct: made in house; host or cells: b-βγ: Sf9 insect cells
Description: Assays were used to determine peptide effects on Gα-Gβγ interactions included competition and dissociation assays (Ghosh, et al. (2003) supra). […] To measure dissociation of Fan from b-Gβaγ2, 100 pM of Fa^ was incubated with 50 pM immobilized b-Gβ1γ2 at room temperature for 15-20 minutes. The fluorescence of bound Fαii subunit was measured, followed by the addition of a 200-fold excess of unlabeled Gcx±x or peptides and the amount of Fan remaining bound to the beads was measured at the indicated times.
The ability of peptides to dissociate a preformed hetero-trimer was assessed by comparing the rates of Fαi1 dissociation from Fαi1β1γ2 with excess unlabeled αi1 competitor (intrinsic dissocia-tion rate) and in the presence of a saturating concentration of peptide.

PLCβ2 = settings: Scott, et al. (2001); read-out: IC50 for inhibition of PLC β2 activation by Gβ1γ2; cited from earlier work
[1] = system: human δ opioid receptor (hDOR-CHO cells); assay: Total inositol phosphate assay in hDOR-CHO cells; format: cell-based; settings: DPDPE, Deltorphin II, M119 10 μM; naltrindole 100 μM; result in words
Description: (§1) Chinese hamster ovary (CHO) cells stably expressing either the human κ (hKOR-CHO), δ (hDOR-CHO)(L. Toll, Stanford Research Institute, Palo Alto, Calif.) or μ (hMOR-CHO)(G. Uhl, National Institute on Drug Abuse, Baltimore, Md.) opioid receptor were used in the experiments. Cells in 6-well plates were labeled by adding 4 μCi of [^3H]inositol for 24 hr in inositol-free F-10 media, without serum. After labeling, LiCl was added directly to the labeling media at a final concentration of 10 mM. Ligands or peptides were added at the same time. The final volume of each well was 1 mL. The plates were put back in to the incubator at 37° C. for 30 min after which time the medium was aspirated and the plates were washed twice with 1× PBS. Ice-cold 50 mM formic acid, 1 mL, was added to the plates which were placed in the cold room at 4° C. for 30 min. After the incubation, the contents of the plates were applied to Dowex AG1-X8 columns and allowed to flow all the way through the column. The columns were washed, twice each, with 50 and 100 mM formic acid, for a total of four washes, followed by elution of the IP-containing fraction with 3 mL of 1.2 M ammonium formate/0.1 M formic acid. The eluted fraction was mixed with Scintisafe scintillation fluid, for high salt, and counted. The data are represented as the fold increase over control in total inositol phospates. All experiments were repeated three times and performed in duplicate. Control cells for each experiment were labeled with [^3H]inositol and LiCl, in the same manner as the treatment groups.

[2] = system: opioid-induced antinociception in mice; assay: 55° C. warm-water tail-flick antinociception; format: in vivo, mouse; settings: i.c.v., 20 min, 55° C. tail-flick; 95% CL in parentheses
[3] = system: human μ opioid receptor (hMOR-CHO cells); assay: Total inositol phosphate assay in hMOR-CHO cells; format: cell-based
Description: as §1

T1 sequence (P54311 whole entry): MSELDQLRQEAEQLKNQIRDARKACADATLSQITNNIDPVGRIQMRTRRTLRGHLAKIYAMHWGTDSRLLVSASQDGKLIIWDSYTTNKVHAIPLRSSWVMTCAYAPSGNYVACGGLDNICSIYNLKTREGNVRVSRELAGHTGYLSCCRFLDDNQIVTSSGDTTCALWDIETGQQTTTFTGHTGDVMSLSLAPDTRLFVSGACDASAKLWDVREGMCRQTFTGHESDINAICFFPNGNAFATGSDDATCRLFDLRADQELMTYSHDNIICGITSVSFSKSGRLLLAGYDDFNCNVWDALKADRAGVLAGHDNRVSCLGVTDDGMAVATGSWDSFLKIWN
T1 sequence (P63212 2-68 limits assumed): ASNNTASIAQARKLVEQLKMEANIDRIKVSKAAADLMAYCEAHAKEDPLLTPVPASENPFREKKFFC

| Compound | promotion/acceleration of heterotrimer dissociation (Fαi1GDPβ1γ2 heterotrimer) | IC50 (PLCβ2) [µM] | effect on IP generation over control treated cells [1] | ED50 of opioid agonist alone [2] [nmol] | effect of compound by itself on IP production [3] |
| --- | --- | --- | --- | --- | --- |
| CC[C@H](C)[C@H](NC(=O)[C@H](CC(N)=O)NC(=O)[C@H](CC(C)C)NC(=O)[C@H](C)NC(=O)[C@H](CCCCN)NC(=O)[C@H](CCCNC(=N)N)NC(=O)[C@@H](NC(=O)[C@@H](N)CO)[C@@H](C)CC)C(=O)N[C@@H](CC(C)C)C(=O)NCC(=O)N[C@@H](Cc1ccc(O)cc1)C(=O)N1CCC[C@H]1C(=O)N[C@@H](CC(=O)O)C(=O)N[C@@H](Cc1ccc(O)cc1)C(=O)N[C@@H](CC(=O)O)C(=O)O [SIRK] | promotes dissociation | 5 | – | – | – |
| Oc1ccc2c3c1O[C@H]1c4[nH]c5ccccc5c4C[C@@]4(O)[C@@H](C2)N(CC2CC2)CC[C@]314 [naltrindole] | – | – | no significant effect | – | – |
| [D-Pen^2,D-Pen^5]enkephalin [DPDPE] | – | – | neither DPDPE (10 μM) (FIG. 15C) nor Deltorphin II (10 μM) (FIG. 15D) significantly increased IP generation | 6.5 | no effect |
